“Also recorded” adds a separate entry of the source.
Assays:
intra-tumoral T cells = experiment: Flow cytometry characterization of tumor immune infiltration; type: in vivo; details: gemcitabine treatment, mice with IL-6
Experimental: For the characterization of immune infiltration, tumors (from 2.5-month-old mice, treated with saline or gemcitabine for 2 weeks) were weighed, minced with gentleMACS Dissociator, and digested in 2 mL solution containing 1 mg/mL Liberase TL (Roche) and 0.2 mg/mL DNase I in DMEM media at 37° C. for 30 min. Spleens were weighed and filtered through a 100 μm mesh. Peripheral blood was collected with EDTA-tube, incubated with ACK lysis buffer for 5 min, and proceeded to mesh filtration. The tissue lysates were filtered through a 100 μm mesh before immunostaining. The subsequent single-cells suspension was stained with Fixable Viability Dye eFluor 780 (eBioscience) and antibodies specified in Table 2. The percentage positive cells were analyzed by FlowJo 10.1 and gated on CD45 positivity. Unstained, viability stain only, and single-stained beads (eBioscience) were used as compensation controls. Singlets were gated using forward scatter (FSC) height (FSC-H) and FSC area (FSC-A) event characteristics.

[1] = system: IL-6 and Acta2 (αSMA) transcripts; experiment: qPCR and immunolabeling of IL-6 and αSMA in tumors; type: in vivo; details: tumors of KPPF mice following gemcitabine treatment
Experimental: Formalin-fixed, paraffin-embedded (FFPE) sections were processed for immunohistochemical (IHC) staining as previously described (Zheng et al., 2015), after Citrate based antigen retrieval (pH=6). For FAP staining in mouse FFPE sections citrate-based antigen retrieval was performed at pH 7.4. Staining for αSMA was performed with M.O.M. kit (Vector Laboratories) following the manufacturer's instructions. For all other staining, sections were incubated with biotinylated goat anti-rabbit and streptavidin HRP (Biocare Medical), each for 10 min. For all staining, counterstaining with hematoxylin was performed and DAB positivity was examined in ten visual fields at 200× magnification. […] The images were quantified for positive area using NIH ImageJ analysis software (αSMA, CD31, CK19, cleaved caspase-3, Ki67, MTS, phospho-Akt, phospho-ERK1/2, phospho-Stat3). For αSMA and FAP double immunofluorescence in human FFPE sections, secondary anti-sheep Alexa Fluor 488 and anti-mouse Alexa Fluor 534 antibodies were incubated for 30 min at RT. […]
Gene expression analyses and global gene expression profiling. […] The expression level of detected genes was normalized to that of Gapdh housekeeping gene. […] Primer sequences for detected genes are listed below. […]

[2] = system: PDAC tumors lacking p53 (KPPF); experiment: Survival of PDAC genetically engineered mice under treatment (Kaplan-Meier, log rank); type: in vivo
Excerpt: Mice. FSF-Kras^G12D/+ (Schonhuber et al., 2014), Pdx1-Flp (Schonhuber et al., 2014), Trp53^frt/+ (Lee et al., 2012), LSL-Kras^G12D/+ (Hingorani et al., 2005), Pdx1-Cre (Hingorani et al., 2005), αSMA-Cre (LeBleu et al., 2013), αSMA-RFP (LeBleu et al., 2013), Rosa26-loxP-Stop-loxP-YFP (Ozdemir et al., 2014), Tgfbr2^loxP/loxP (Ijichi et al., 2006), and IL-6^loxP/loxP (Quintana et al., 2013) mouse strains were previously documented. The Rosa26-CAG-loxP-frt-Stop-frt-FireflyLuc-EGFP-loxP-RenillaLuc-tdTomato (referred to as R26^Dual), FSF-Kras^G12D/+, Pdx1-Flp, and Trp53^frt/+ strains were kindly provided by D. Saur, and the R26R-Brainbow2.1/Confetti (referred to as R26^Confetti) strain was purchased from Jackson Laboratory (Stock 013731). The IL-6^−/− strain was generated by crossing the IL-6^loxP/loxP strain with CMV-Cre strain (Jackson Laboratory; Stock 006054). The FAP-TK transgenic strain was newly generated: a 5 kb sequence flanking the FAP promoter and partial Exon 1 (Ex1) was cloned into pORF-HSV1-TK vector (Invivogen) using NotI and AgeI. The sequence-confirmed FAP-TK construct was released from the vector using NotI and SwaI before purification and injection into fertilized eggs. The transgenic mice were generated on the C57Bl/6 genetic background. These mice were bred onto PDAC GEM or implanted orthotopically with 689KPC cancer cells, as previously described (Kamerkar et al., 2017). Mice were maintained on a mixed genetic background and both male and female mice were evaluated. Mice were given gemcitabine (G-4177, LC Laboratories) intraperitoneally (i.p.) twice per week at 40 mg/kg of body weight. Gemcitabine treatment was initiated at 35 days of age. Ganciclovir (GCV; sud-gcv, Invivogen) was administered i.p. daily at 50 mg/kg of body weight ([…]). GCV was administered to PKT mice at 28 to 30 days of age, and to PKP mice at 50-51 days of age. Some of the tissues analyzed from the PKT;αSMA-TK GEM were from mice that were previously published (Ozdemir et al., 2014). […]

PDAC tumors (KPPF GEM) [3] = experiment: Histopathological scoring and tumor burden of pancreas tumors; type: in vivo; details: gemcitabine in KPPF;IL-6smaKO vs KPPF mice
Excerpt: Mice. FSF-Kras^G12D/+ (Schonhuber et al., 2014), Pdx1-Flp (Schonhuber et al., 2014), Trp53^frt/+ (Lee et al., 2012), LSL-Kras^G12D/+ (Hingorani et al., 2005), Pdx1-Cre (Hingorani et al., 2005), αSMA-Cre (LeBleu et al., 2013), αSMA-RFP (LeBleu et al., 2013), Rosa26-loxP-Stop-loxP-YFP (Ozdemir et al., 2014), Tgfbr2^loxP/loxP (Ijichi et al., 2006), and IL-6^loxP/loxP (Quintana et al., 2013) mouse strains were previously documented. The Rosa26-CAG-loxP-frt-Stop-frt-FireflyLuc-EGFP-loxP-RenillaLuc-tdTomato (referred to as R26^Dual), FSF-Kras^G12D/+, Pdx1-Flp, and Trp53^frt/+ strains were kindly provided by D. Saur, and the R26R-Brainbow2.1/Confetti (referred to as R26^Confetti) strain was purchased from Jackson Laboratory (Stock 013731). The IL-6^−/− strain was generated by crossing the IL-6^loxP/loxP strain with CMV-Cre strain (Jackson Laboratory; Stock 006054). […] Mice were maintained on a mixed genetic background and both male and female mice were evaluated. […] Some of the tissues analyzed from the PKT;αSMA-TK GEM were from mice that were previously published (Ozdemir et al., 2014). […]
Histopathological Scoring. […] Tumor scores for orthotopic tumors were attributed on a scale from 1 (minor involvement) to 4 (extensive involvement), which evaluated on H&E sections of the entire pancreas the relative tumor involvement. […]

[4] = system: phospho-Stat3, phospho-ERK1/2, phospho-Akt; experiment: Immunohistochemistry for phospho-Stat3, phospho-ERK1/2 and phospho-Akt in tumors; type: in vivo, mice
Experimental: (§1) Formalin-fixed, paraffin-embedded (FFPE) sections were processed for immunohistochemical (IHC) staining as previously described (Zheng et al., 2015), after Citrate based antigen retrieval (pH=6). For FAP staining in mouse FFPE sections citrate-based antigen retrieval was performed at pH 7.4. Staining for αSMA was performed with M.O.M. kit (Vector Laboratories) following the manufacturer's instructions. For all other staining, sections were incubated with biotinylated goat anti-rabbit and streptavidin HRP (Biocare Medical), each for 10 min. For all staining, counterstaining with hematoxylin was performed and DAB positivity was examined in ten visual fields at 200× magnification. […] The images were quantified for positive area using NIH ImageJ analysis software (αSMA, CD31, CK19, cleaved caspase-3, Ki67, MTS, phospho-Akt, phospho-ERK1/2, phospho-Stat3). For αSMA and FAP double immunofluorescence in human FFPE sections, secondary anti-sheep Alexa Fluor 488 and anti-mouse Alexa Fluor 534 antibodies were incubated for 30 min at RT. For αSMA and FAP IHC on FAP-TK and control tumor sections, immunoreactive score (IRS) were obtained from the sum of distribution and intensity scores for each section, established on a scale of 1 to 4 (Meyerholz & Beck, 2018).

PDAC tumors (KPPF GEM) [5] = experiment: Immunohistochemistry/staining of pancreas sections for CD31, Ki67, cleaved caspase 3 and MTS; type: in vivo, mice
Experimental: as §1
Histopathological Scoring. Mouse tissues were fixed in 10% neutral buffered formalin, embedded in paraffin, and sectioned at 5 μm thickness. Sections were processed for haematoxylin and eosin (H&E) staining and/or Masson's trichrome staining (MTS) using Gomori's Trichome Stain Kit (38016SS2, Leica Biosystems). Histopathological assessments were conducted in a blinded fashion by scoring H&E-stained sections for relative percentages of the listed histopathological phenotypes. Tumor scores for orthotopic tumors were attributed on a scale from 1 (minor involvement) to 4 (extensive involvement), which evaluated on H&E sections of the entire pancreas the relative tumor involvement. Microscopic metastases were examined in H&E-stained tissue sections of the liver and lung. Positivity (one or more lesions in one tissue) was confirmed by CK19 staining. Images were obtained with a Leica DM 1000 LED microscope and an MC120 HD Microscope Camera with Las V4.4 Software (Leica).

[6] = gemcitabine with loss of IL-6 from αSMA+ CAFs (KPPF;IL-6smaKO)
[7] = tumors of KPPF mice treated with gemcitabine
[8] = gemcitabine in mice with αSMA+ CAFs-specific loss of IL-6, vs controls

Nc1ccn([C@@H]2O[C@H](CO)[C@@H](O)C2(F)F)c(=O)n1 [gemcitabine]
intra-tumoral T cell frequencies (intra-tumoral T cells): minimally impacted
IL-6 transcript levels and positive cells [1]: elevated
αSMA transcript levels and αSMA+ CAFs [1]: elevated
overall survival ([2]; KPPF mice, gemcitabine 40 mg/kg i.p. twice per week, vs untreated KPPF mice): no benefit
overall survival ([2]; KPPF;IL-6smaKO mice (αSMA+ CAFs-specific loss of IL-6) treated with gemcitabine, vs KPPF mice treated with gemcitabine): increase in overall survival; also recorded: overall increase in survival
overall survival ([2]; KPPF;IL-6−/− mice (absent IL-6) treated with gemcitabine, vs KPPF mice treated with gemcitabine): increased overall survival; also recorded: overall increase in survival
tumor burden (PDAC tumors (KPPF GEM) [3]): reduced tumor burden
histopathology (PDAC tumors (KPPF GEM) [3]; moribund endpoint): improved histopathology
gemcitabine-induced change in phosphorylated Akt [4, 6]: significantly attenuated
gemcitabine-induced change in phosphorylated ERK1/2 [4, 6]: significantly attenuated
gemcitabine-induced change in phosphorylated Stat3 [4, 6]: significantly attenuated
levels of phosphorylated Akt in cancer cells [4, 7]: elevated levels
levels of phosphorylated ERK1/2 in cancer cells [4, 7]: elevated levels
levels of phosphorylated Stat3 in cancer cells [4, 7]: elevated levels
cleaved caspase-3, indicative of apoptosis (PDAC tumors (KPPF GEM) [5]; gemcitabine concurrent with αSMA+ CAFs-specific loss of IL-6): further increased
cancer cell proliferation (PDAC tumors (KPPF GEM) [5]; [8]): did not significantly impact
tumor collagen deposition (PDAC tumors (KPPF GEM) [5]; [8]): did not significantly impact
tumor vasculature (PDAC tumors (KPPF GEM) [5]; [8]): did not significantly impact
cleaved caspase-3, indicative of apoptosis (PDAC tumors (KPPF GEM) [5]; mice treated with gemcitabine): elevated

Source: patent publication US20220144938A1, “IDENTIFICATION AND TARGETING OF TUMOR PROMOTING CARCINOMA ASSOCIATED FIBROBLASTS FOR DIAGNOSIS AND TREATMENT OF CANCER AND OTHER DISEASES” (Board of Regents, The University of Texas System, priority 2018, published 2022)
